Experimental data taken from ChEMBL document CHEMBL1125246, “Configuration and preferential solid-state conformations of perindoprilat (S-9780). Comparison with the crystal structures of other ACE inhibitors and conclusions related to structure-activity relationships” (J Med Chem, 1991).

The compounds below were run against T1, Angiotensin-converting enzyme (Oryctolagus cuniculus, UniProt P12822) (assay: In vitro activity against angiotensin I converting enzyme especially against Hip-His-Leu residues).
T1 sequence (P12822 whole entry): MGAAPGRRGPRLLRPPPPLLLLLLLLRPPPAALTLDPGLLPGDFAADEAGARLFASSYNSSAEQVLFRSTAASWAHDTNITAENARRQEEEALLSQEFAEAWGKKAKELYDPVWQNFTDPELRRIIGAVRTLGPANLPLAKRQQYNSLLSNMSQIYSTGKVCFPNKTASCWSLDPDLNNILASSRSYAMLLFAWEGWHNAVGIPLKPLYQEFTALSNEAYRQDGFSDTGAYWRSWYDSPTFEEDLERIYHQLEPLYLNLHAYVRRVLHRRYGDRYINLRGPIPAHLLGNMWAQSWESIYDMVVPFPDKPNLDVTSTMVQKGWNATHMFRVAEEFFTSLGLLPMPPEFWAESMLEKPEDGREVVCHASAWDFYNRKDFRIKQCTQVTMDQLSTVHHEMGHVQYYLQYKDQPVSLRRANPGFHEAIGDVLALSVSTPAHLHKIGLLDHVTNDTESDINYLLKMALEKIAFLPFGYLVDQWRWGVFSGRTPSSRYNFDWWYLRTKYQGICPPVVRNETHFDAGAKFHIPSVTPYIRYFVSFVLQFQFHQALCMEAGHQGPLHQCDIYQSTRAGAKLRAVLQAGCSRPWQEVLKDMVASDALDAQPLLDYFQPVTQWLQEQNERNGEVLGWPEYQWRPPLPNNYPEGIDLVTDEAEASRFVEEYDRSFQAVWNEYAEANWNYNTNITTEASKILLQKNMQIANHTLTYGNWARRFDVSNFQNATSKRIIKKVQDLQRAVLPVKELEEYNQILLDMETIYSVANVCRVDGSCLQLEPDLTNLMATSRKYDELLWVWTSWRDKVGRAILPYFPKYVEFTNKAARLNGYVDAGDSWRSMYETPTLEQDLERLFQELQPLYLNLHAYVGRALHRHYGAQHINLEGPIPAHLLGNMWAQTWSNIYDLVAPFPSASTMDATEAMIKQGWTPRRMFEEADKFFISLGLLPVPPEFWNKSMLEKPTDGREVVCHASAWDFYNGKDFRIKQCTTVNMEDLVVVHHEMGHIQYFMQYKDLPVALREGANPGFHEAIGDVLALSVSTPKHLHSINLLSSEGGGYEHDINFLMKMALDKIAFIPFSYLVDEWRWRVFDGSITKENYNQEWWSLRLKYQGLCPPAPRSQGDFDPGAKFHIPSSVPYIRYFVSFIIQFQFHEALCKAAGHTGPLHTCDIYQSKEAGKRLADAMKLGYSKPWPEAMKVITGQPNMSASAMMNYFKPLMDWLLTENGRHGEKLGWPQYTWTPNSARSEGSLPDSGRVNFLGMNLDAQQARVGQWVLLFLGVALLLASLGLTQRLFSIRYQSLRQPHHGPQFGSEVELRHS

| Compound | IC50 [nM] |
| --- | --- |
| CCC[C@H](NCC(=O)N1C2CCCCC2C[C@H]1C(=O)O)C(=O)O (stereo not given in full) | 1.9 |
| CCCC(N[C@@H](C)C(=O)N1C(C(=O)O)CC2CCCCC21)C(=O)O (stereo not given in full) | 1.5 |
| O=C(O)[C@H](CCc1ccccc1)NCC(=O)N1CCC[C@H]1C(=O)O | 230 |
| CCCC(N[C@H](C)C(=O)N1C(C(=O)O)CC2CCCCC21)C(=O)O (stereo not given in full) | 1100 |
| O=C(O)C1CCCN1C(=O)CCS (stereo not given) | 200 |
